Literature values in patent publication US20240109913A1, “NEW SPIRO[3H-INDOLE-3,2'-PYRROLIDIN]-2(1H)-ONE COMPOUNDS AND DERIVATIVES AS MDM2-P53 INHIBITORS” (Boehringer Ingelheim International GmbH, priority 2014, published 2024).

Assays:
[1] = system: p53 wild-type vs. p53 mutant cell lines; details: in vitro (Carol et al. 2013)
[2] = system: solid tumor xenograft models; details: solid tumor xenograft models (Carol et al. 2013)
[3] = system: acute lymphoblastic leukemia (ALL) xenograft models with mixed-lineage leukemia (MLL) rearrangement; details: ALL xenograft models with MLL rearrangement (Carol et al. 2013)
[4] = system: human acute myeloid leukemia (AML) and human prostate tumor xenograft models harboring p53 wild-type; details: p53 wild-type (Tovar et al. 2013)

Question: Which “cytotoxic activity, median IC50” value [1] does the source give for `CCOc1cc(C(C)(C)C)ccc1C1=N[C@@](C)(c2ccc(Cl)cc2)[C@@](C)(c2ccc(Cl)cc2)N1C(=O)N1CCN(CCCS(C)(=O)=O)CC1` [RG-7112] here?
Answer: lower median IC50 values for p53 wild-type vs. p53 mutant cell lines

Question: What about the tumor growth inhibition [2] of the same compound?
Answer: induced tumor growth inhibition

Question: And the “efficacy in ALL xenograft models” value [3]?
Answer: particularly efficacious

Question: With `CCOc1cc(C(C)(C)C)ccc1C1=N[C@@](C)(c2ccc(Cl)cc2)[C@@](C)(c2ccc(Cl)cc2)N1C(=O)N1CCN(CCCS(C)(=O)=O)CC1` [RG7112] as the compound, how does the “antiproliferative and proapoptotic activity” value [4] read?
Answer: antiproliferative and proapoptotic activity of RG7112 has been observed
